Measurements as given in ChEMBL document CHEMBL1136397, “5-Aryl thiazolidine-2,4-diones as selective PPARgamma agonists” (Bioorg Med Chem Lett, 2003).

Tests used:
[1] = biological target: T1, Peroxisome proliferator-activated receptor delta (Homo sapiens, UniProt Q03181)
T1 sequence (Q03181 whole entry): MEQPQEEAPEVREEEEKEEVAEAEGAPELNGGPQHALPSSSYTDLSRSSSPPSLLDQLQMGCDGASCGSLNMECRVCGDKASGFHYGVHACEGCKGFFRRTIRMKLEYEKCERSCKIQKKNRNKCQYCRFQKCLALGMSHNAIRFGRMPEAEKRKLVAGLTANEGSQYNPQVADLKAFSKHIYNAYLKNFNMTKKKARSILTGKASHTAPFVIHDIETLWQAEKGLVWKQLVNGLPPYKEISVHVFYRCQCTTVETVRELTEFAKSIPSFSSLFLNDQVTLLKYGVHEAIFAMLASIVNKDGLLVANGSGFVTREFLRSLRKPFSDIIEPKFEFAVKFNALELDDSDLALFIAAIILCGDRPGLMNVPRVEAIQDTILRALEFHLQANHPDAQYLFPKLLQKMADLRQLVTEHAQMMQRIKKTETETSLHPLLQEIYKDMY
Description: In vitro binding affinity against human PPAR delta (peroxisome proliferator-activated delta receptor)

[2] = biological target: T2, Peroxisome proliferator-activated receptor gamma (Homo sapiens, UniProt P37231)
T2 sequence (P37231 whole entry): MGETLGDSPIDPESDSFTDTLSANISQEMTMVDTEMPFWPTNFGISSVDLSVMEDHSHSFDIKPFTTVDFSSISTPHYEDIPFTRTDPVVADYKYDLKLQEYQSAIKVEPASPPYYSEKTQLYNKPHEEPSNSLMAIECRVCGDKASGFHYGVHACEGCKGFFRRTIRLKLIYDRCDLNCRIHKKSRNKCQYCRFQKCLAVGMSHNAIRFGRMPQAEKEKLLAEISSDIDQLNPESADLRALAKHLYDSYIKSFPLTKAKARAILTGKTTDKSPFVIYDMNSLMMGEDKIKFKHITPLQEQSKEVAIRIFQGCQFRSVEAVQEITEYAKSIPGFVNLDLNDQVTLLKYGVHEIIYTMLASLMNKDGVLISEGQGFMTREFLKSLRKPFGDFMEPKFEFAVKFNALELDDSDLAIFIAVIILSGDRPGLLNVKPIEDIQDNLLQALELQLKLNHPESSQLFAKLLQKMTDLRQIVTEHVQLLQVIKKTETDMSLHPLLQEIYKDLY
Description: In vitro binding affinity against human PPAR gamma (peroxisome proliferator-activated gamma receptor)

[3] = biological target: T3, Peroxisome proliferator-activated receptor alpha (Homo sapiens, UniProt Q07869); test: In vitro binding affinity against human PPAR alpha (peroxisome proliferator-activated alpha receptor)
T3 sequence (Q07869 whole entry): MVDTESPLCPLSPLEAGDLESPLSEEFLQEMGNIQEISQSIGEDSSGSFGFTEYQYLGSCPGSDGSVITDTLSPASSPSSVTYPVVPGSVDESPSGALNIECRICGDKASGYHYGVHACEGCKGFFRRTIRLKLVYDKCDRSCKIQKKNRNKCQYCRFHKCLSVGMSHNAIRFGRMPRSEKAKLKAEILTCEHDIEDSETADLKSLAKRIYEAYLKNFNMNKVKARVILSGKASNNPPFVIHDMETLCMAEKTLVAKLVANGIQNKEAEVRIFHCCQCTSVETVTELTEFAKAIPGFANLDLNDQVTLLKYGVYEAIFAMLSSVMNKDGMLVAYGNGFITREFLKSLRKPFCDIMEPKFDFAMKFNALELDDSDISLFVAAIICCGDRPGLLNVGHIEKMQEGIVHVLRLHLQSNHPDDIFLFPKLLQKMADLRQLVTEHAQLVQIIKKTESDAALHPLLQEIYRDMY

Rattus norvegicus [4] = test: Dose-normalized AUC was determined in rat after peroral administration (2 mg/kg); format: ADME, organism-based; details: in vivo, po
[5] = biological target: T3, Peroxisome proliferator-activated receptor alpha; test: In vitro agonist activity tested for transactivation in human PPAR alpha-Gal4 chimeric COS-1 cells; format: functional, cell-based
[6] = In vivo glucose correction was determined in male db/db mice after administration at 10 mg/kg; format: functional, Mus musculus
[7] = (§1) Plasma clearance was determined in rat after intravenous administration (0.5 mg/kg); format: ADME, organism-based; details: read-out: Clp
[8] = Half-life was determined in rat after intravenous administration (0.5 mg/kg); format: ADME, organism-based; details: in vivo
[9] = biological target: T1, Peroxisome proliferator-activated receptor delta; remark: listed apart in the source
Description: In vitro agonist activity tested for transactivation in human PPAR delta-GAL4 chimeric COS-1 cells

[10] = In vivo triglyceride correction was determined in male db/db mice after administration at 10 mg/kg; format: functional, Mus musculus
[11] = Oral bioavailability in rat (dose 2 mg/kg); format: ADME, organism-based; details: in vivo
[12] = biological target: T2, Peroxisome proliferator-activated receptor gamma; remark: listed apart in the source
Description: In vitro agonist activity tested for transactivation in human PPAR gamma-Gal4 chimeric COS-1 cells

Mus musculus [13] = test: In vivo triglyceride correction was determined in male db/db mice after administration at 5 mg/kg; format: functional
Mus musculus [14] = test: In vivo glucose correction was determined in male db/db mice after administration at 5 mg/kg; format: functional
Rattus norvegicus [15] = test: as §1; format: functional, organism-based

In the case of O=C1NC(=O)C(c2ccc(OCCCOc3ccc(Oc4ccccc4)cc3)cc2)S1 (stereo unspecified), the IC50 [1] is reported as over 50 µM, the IC50 [2] is reported as over 15 µM and the IC50 [3] is reported as over 50 µM.

CCCc1cc(Oc2ccccc2)ccc1OCCCOc1ccc(C2SC(=O)NC2=O)cc1 (stereo unspecified) gave an IC50 [1] of over 10 µM, an AUC (Rattus norvegicus [4]) of 13.8 µM·h and an EC50 [5] of over 3 µM. The Glucose correction [6] was 77%, the clearance [7] was 2.3 mL/min/kg and the half-life [8] was 2.3 h. For the same molecule, the EC50 [9] was over 3 µM, the Triglyceride correction [10] was 74% and the IC50 [3] was 50 µM. The bioavailability [11] was 89%.

Molecule CCCc1cc(Oc2ccccc2)ccc1OCCCOc1ccc(C2SC(=O)NC2=O)cc1CCC (stereo unspecified) has an IC50 [1] of 1 µM, an EC50 [5] of over 3 µM and an IC50 [2] of 0.12 µM. The EC50 [12] was 0.2 µM, the EC50 [9] was 3 µM and the IC50 [3] was over 50 µM.

In the case of CCCc1cc(Oc2ccc(C(F)(F)F)cc2)ccc1OCCCOc1ccc(C2SC(=O)NC2=O)cc1 (stereo unspecified), the IC50 [1] is reported as over 50 µM, the IC50 [2] is reported as 1.8 µM and the IC50 [3] is reported as over 50 µM.

Work on CCCc1cc(Oc2ccc(S(C)(=O)=O)cc2)ccc1OCCCOc1ccc(C2SC(=O)NC2=O)cc1 (stereo unspecified) yielded an IC50 [1] of over 50 µM, an AUC (Rattus norvegicus [4]) of 11.8 µM·h and an EC50 [5] of over 3 µM. The IC50 [2] was 0.25 µM, the Triglyceride correction (Mus musculus [13]) was 55% and the Glucose correction [6] was 86%. For the same molecule, the Glucose correction (Mus musculus [14]) was 62%, the EC50 [12] was 0.12 µM and the half-life [8] was 2.8 h. It also gave an EC50 [9] of over 3 µM, a Triglyceride correction [10] of 78% and an IC50 [3] of over 50 µM. It also gave a bioavailability [11] of 84% and a CL (mL.min-1.kg-1) (Rattus norvegicus [15]) of 2.1.

Work on CCCc1cc(Oc2ccccc2)ccc1OCCCOc1ccc(C2SC(=O)NC2=O)cc1F (stereo unspecified) yielded an IC50 [1] of 2 µM, an AUC (Rattus norvegicus [4]) of 7.43 µM·h and an EC50 [5] of over 3 µM. The Glucose correction [6] was 43%, the clearance [7] was 2.9 mL/min/kg and the EC50 [12] was 0.3 µM. For the same molecule, the half-life [8] was 1.7 h, the EC50 [9] was over 3 µM and the Triglyceride correction [10] was 50%. It also gave a bioavailability [11] of 63%.

CCCc1cc(Oc2ccc(OC)cc2)ccc1OCCCOc1ccc(C2SC(=O)NC2=O)cc1 (stereo unspecified) showed an IC50 [1] of over 50 µM, an AUC (Rattus norvegicus [4]) of 11.7 µM·h and an EC50 [5] of over 10 µM. The IC50 [2] was 0.46 µM, the Glucose correction [6] was 67% and the clearance [7] was 1.1 mL/min/kg. For the same molecule, the half-life [8] was 2.8 h, the EC50 [9] was over 3 µM and the Triglyceride correction [10] was 67%. It also gave an IC50 [3] of over 50 µM and a bioavailability [11] of 39%.

Molecule CCCc1cc(Oc2ccc(Cl)cc2)ccc1OCCCOc1ccc(C2SC(=O)NC2=O)cc1 (stereo unspecified) has an IC50 [1] of over 50 µM, an AUC (Rattus norvegicus [4]) of 6.7 µM·h and an EC50 [5] of 3 µM. For the same molecule, the IC50 [2] was 2 µM, the Glucose correction [6] was 86% and the clearance [7] was 2.9 mL/min/kg. It also gave an EC50 [12] of 0.08 µM, a half-life [8] of 5.4 h and an EC50 [9] of over 3 µM. The Triglyceride correction [10] was 80%, the IC50 [3] was over 50 µM and the bioavailability [11] was 58%.

In the case of CCCc1cc(Oc2ccc(C)cc2)ccc1OCCCOc1ccc(C2SC(=O)NC2=O)cc1 (stereo unspecified), the IC50 [1] is reported as over 50 µM, the IC50 [2] is reported as 2.6 µM and the IC50 [3] is reported as over 50 µM.

With CCCc1cc(Oc2ccc(NS(=O)(=O)c3ccc(C)cc3)cc2)ccc1OCCCOc1ccc(C2SC(=O)NC2=O)cc1 (stereo unspecified) the IC50 [1] was over 50 µM, the EC50 [5] was over 3 µM and the IC50 [2] was 5.7 µM. The EC50 [12] was 0.5 µM, the EC50 [9] was over 3 µM and the IC50 [3] was over 50 µM.

For CCCc1cc(Oc2ccc(CC(C)C)cc2)ccc1OCCCOc1ccc(C2SC(=O)NC2=O)cc1 (stereo unspecified), the IC50 [1] was over 50 µM, the EC50 [5] was over 3 µM and the IC50 [2] was 0.13 µM. It also gave an EC50 [12] of 0.03 µM, an EC50 [9] of over 3 µM and an IC50 [3] of over 50 µM.

Molecule CCCc1cc(Oc2ccccc2)ccc1OCCCOc1ccc(C2SC(=O)NC2=O)cc1C (stereo unspecified) has an IC50 [1] of 6 µM, an EC50 [5] of over 3 µM and an IC50 [2] of 6.7 µM. For the same molecule, the EC50 [12] was 0.1 µM, the EC50 [9] was over 3 µM and the IC50 [3] was over 50 µM.

For CCCc1cc(Oc2ccc(-c3ccccc3)cc2)ccc1OCCCOc1ccc(C2SC(=O)NC2=O)cc1 (stereo unspecified), the IC50 [1] was over 50 µM, the AUC (Rattus norvegicus [4]) was 0.7 µM·h and the EC50 [5] was over 3 µM. The IC50 [2] was 0.13 µM, the clearance [7] was 2.8 mL/min/kg and the EC50 [12] was 0.02 µM. For the same molecule, the half-life [8] was 2.2 h, the EC50 [9] was over 3 µM and the IC50 [3] was over 50 µM. For the same molecule, the bioavailability [11] was 6%.

In the case of CCCc1cc(Oc2ccc(C3CCCC3)cc2)ccc1OCCCOc1ccc(C2SC(=O)NC2=O)cc1 (stereo unspecified), the IC50 [1] is reported as over 50 µM, the IC50 [2] is reported as 0.18 µM and the IC50 [3] is reported as over 50 µM.

Molecule CC(C)Cc1cc(Oc2ccccc2)ccc1OCCCOc1ccc(C2SC(=O)NC2=O)cc1 (stereo unspecified) has an IC50 [1] of 0.16 µM and an IC50 [3] of 0.34 µM.

CCCc1cc(Oc2ccccc2)ccc1OCCCCOc1ccc(C2SC(=O)NC2=O)cc1 (stereo unspecified) gave an IC50 [1] of over 10 µM, an EC50 [5] of over 3 µM and an IC50 [2] of 3 µM. For the same molecule, the EC50 [9] was over 3 µM and the IC50 [3] was over 50 µM.

Molecule CCCc1cc(Oc2ccccc2)ccc1OCCCOc1ccc(C2SC(=O)NC2=O)cc1OC (stereo unspecified) has an IC50 [1] of over 10 µM, an EC50 [5] of over 3 µM and an IC50 [2] of 1 µM. For the same molecule, the EC50 [12] was 0.4 µM, the EC50 [9] was over 3 µM and the IC50 [3] was over 50 µM.

Work on CCCc1cc(Oc2ccc(NS(C)(=O)=O)cc2)ccc1OCCCOc1ccc(C2SC(=O)NC2=O)cc1 (stereo unspecified) yielded an IC50 [1] of over 50 µM, an IC50 [2] of 2 µM and an IC50 [3] of over 50 µM.

For CCCc1cc(Oc2ccccc2)ccc1OCCCOc1ccc(C2SC(=O)NC2=O)cc1Cl (stereo unspecified), the IC50 [1] was 0.88 µM, the EC50 [5] was over 3 µM and the IC50 [2] was 0.43 µM. The EC50 [12] was 0.7 µM, the EC50 [9] was over 3 µM and the IC50 [3] was over 50 µM.

With CN(CCOc1ccc(CC2SC(=O)NC2=O)cc1)c1ccccn1 (stereo unspecified) [ROSIGLITAZONE] the AUC (Rattus norvegicus [4]) was 16.4 µM·h, the Triglyceride correction (Mus musculus [13]) was 52% and the Glucose correction (Mus musculus [14]) was 46%. For the same molecule, the clearance [7] was 2.7 mL/min/kg, the half-life [8] was 1.2 h and the bioavailability [11] was 85%.

With CCCc1cc(Oc2ccc(F)cc2)ccc1OCCCOc1ccc(C2SC(=O)NC2=O)cc1 (stereo unspecified) the IC50 [1] was over 50 µM, the AUC (Rattus norvegicus [4]) was 5.97 µM·h and the EC50 [5] was over 50 µM. It also gave a Glucose correction [6] of 78%, a clearance [7] of 3.6 mL/min/kg and a half-life [8] of 2.1 h. For the same molecule, the EC50 [9] was over 50 µM, the Triglyceride correction [10] was 71% and the IC50 [3] was over 50 µM. For the same molecule, the bioavailability [11] was 63%.
